Reference: PMC9578396, “Intrinsic Antibacterial Activity of Xeruborbactam In Vitro: Assessing Spectrum and Mode of Action” (Antimicrobial Agents and Chemotherapy, 2022)
Values after ≈ are worked out from the molar mass of the structure shown. Values joined by “and” are separate entries in the source; they are usually repeats but may differ in a detail not shown here. Equal entries are not always repeated. Where two headings read alike, the source gives them in different places.

Columns and labels:
Format in all cases: cell-based
Klebsiella pneumoniae = test: microbe, parasite or virus in culture; conditions: for MIC: Klebsiella pneumoniae
In short: (§1)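 Test organisms were KPC-producing clinical isolates (some enriched for porin mutations), matched isolates that lost KPC plasmids, and engineered porin/efflux mutant strains. Susceptibility was measured by broth microdilution following CLSI methods, using panels prepared in-house.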

Escherichia coli = test: Broth microdilution MIC (CLSI), Escherichia coli; conditions: Escherichia coli
In short: as §1

Staphylococcus aureus = test: MIC, Staphylococcus aureus (MSSA, MRSA)
Excerpt: (§2) Bacterial isolates were subjected to broth microdilution susceptibility testing, performed according to Clinical and Laboratory Standards Institute (CLSI) methods ([46]), using panels prepared in-house. Meropenem was purchased from Sandoz, and all other antibiotics were from Sigma-Aldrich. Xeruborbactam was synthesized at Qpex Biopharma, San Diego, CA. Avibactam was purchased from eNovation Chemicals LLC, Bridgewater, NJ, USA; zidebactam was from MedKoo Biosciences, Inc., Morrisville, NC, and nacubactam was from Advanced ChemBlocks, Hayward, CA. Durlobactam was synthesized at Acme Bioscience, Palo Alto, CA, USA.

Acinetobacter baumannii = test: Broth microdilution MIC (CLSI), Acinetobacter baumannii; conditions: Acinetobacter baumannii
In short: as §1

Streptococcus pneumoniae = test: MIC, Streptococcus pneumoniae
Excerpt: as §2

Structure (SMILES): C[C@@H](O)[C@H]1C(=O)N2C(C(=O)O)=C(S[C@@H]3CN[C@H](C(=O)N(C)C)C3)[C@H](C)[C@H]12 [Meropenem]
- MIC90 (Klebsiella pneumoniae): ≤0.06 µg/mL
- MIC (Klebsiella pneumoniae; ATCC49816): 0.03 µg/mL and 0.08 µM
- MIC (Klebsiella pneumoniae; KPM2601 (KPC-3; ΔompK35), alone): 32 µg/mL
- MIC (Klebsiella pneumoniae; KPM2631 (KPC-3; ompK36_fs ΔompK35), alone): 256 µg/mL
- MIC (Klebsiella pneumoniae; KPM3532 (TolQ::M189K), alone): 0.06 µg/mL
- MIC (Klebsiella pneumoniae; KPM3532, TolQ::M189K): 0.06 µg/mL
- MIC (Klebsiella pneumoniae; KPM3534 (TolQ::S31F), alone): 0.06 µg/mL
- MIC (Klebsiella pneumoniae; KPM3534, TolQ::S31F): 0.06 µg/mL
- MIC (Klebsiella pneumoniae; KPM4127 (KPM3532 TolQ::M189K/KPC-3), alone): 32 µg/mL
- MIC (Klebsiella pneumoniae; KPM4128 (KPM3534 TolQ::S31F/KPC-3), alone): 32 µg/mL
- MIC (Klebsiella pneumoniae; KPM4129 (KPM3532 TolQ::M189K/NDM-1), alone): > 64 µg/mL
- MIC (Klebsiella pneumoniae; KPM4130 (KPM3534 TolQ::S31F/NDM-1), alone): > 64 µg/mL
- MIC (Klebsiella pneumoniae; KPM4235, TolQ::IP(183–1844)PR): 0.06 µg/mL
- MIC (Klebsiella pneumoniae; KPM4236, TolQ::TAA at aa 103): 0.06 µg/mL
- MIC (Klebsiella pneumoniae; KPM4238, TolQ::S25F): 0.06 µg/mL
- MIC (Klebsiella pneumoniae; KPM4239, TolQ::S28F): 0.06 µg/mL
- MIC (Klebsiella pneumoniae; KPM4240, TolQ::S25Y): 0.06 µg/mL
- MIC (Klebsiella pneumoniae; no-plasmid strain KPM1026a): 0.03 µg/mL
- MIC (Klebsiella pneumoniae; no-plasmid strain KPM1027): 0.06 µg/mL
- MIC (Klebsiella pneumoniae; no-plasmid strain KPM1171): 2 µg/mL
- MIC (Klebsiella pneumoniae; no-plasmid strain KPM2040): 0.125 µg/mL
- MIC (Klebsiella pneumoniae; no-plasmid strain KPM2600): 0.06 µg/mL
- MIC (Klebsiella pneumoniae; no-plasmid strain KPM2613): 0.25 µg/mL
- MIC (Klebsiella pneumoniae; strain KPM2600, ΔompK35): 0.06 µg/mL
- MIC (Klebsiella pneumoniae; strain KPM2613, ΔompK35 ompK36_2040): 0.25 µg/mL
- MIC (Klebsiella pneumoniae; strain KPM2696, ΔacrB): 0.03 µg/mL
- MIC (Escherichia coli): 0.03 µg/mL
- MIC (Escherichia coli; MG1655): 0.03 µg/mL and 0.08 µM
- MIC (Escherichia coli; strain ECM6001, ΔacrB): 0.03 µg/mL
- MIC (Escherichia coli; strain ECM6502, marR (AcrAB overexpression)): 0.06 µg/mL
- MIC (Staphylococcus aureus; Staphylococcus aureus, ATCC 29213 / MSSA, ATCC 29213, MSSA, read-out: MIC): 0.06 µg/mL (≈ 0.156 µM)
- MIC (Staphylococcus aureus; Staphylococcus aureus, MRSA, sa001, MRSA, read-out: MIC): 16 µg/mL (≈ 41.7 µM)
- MIC (Staphylococcus aureus; Staphylococcus aureus, MRSA, sa010, MRSA, read-out: MIC): 32 µg/mL (≈ 83.4 µM)
- MIC (Staphylococcus aureus; Staphylococcus aureus, MRSA, sa013, MRSA, read-out: MIC): 16 µg/mL (≈ 41.7 µM)
- MIC (Staphylococcus aureus; Staphylococcus aureus, MRSA, sa014, MRSA, read-out: MIC): 8 µg/mL (≈ 20.9 µM)
- MIC (Staphylococcus aureus; Staphylococcus aureus, MRSA, sa148, MRSA, read-out: MIC): 32 µg/mL (≈ 83.4 µM)
- MIC (Staphylococcus aureus; Staphylococcus aureus, MRSA, sa150, MRSA, read-out: MIC): 32 µg/mL (≈ 83.4 µM)
- MIC (Staphylococcus aureus; Staphylococcus aureus, MRSA, sa151, MRSA, read-out: MIC): 32 µg/mL (≈ 83.4 µM)
- MIC (Staphylococcus aureus; Staphylococcus aureus, MRSA, sa152, MRSA, read-out: MIC): 4 µg/mL (≈ 10.4 µM)
- MIC (Staphylococcus aureus; Staphylococcus aureus, MRSA, sa153, MRSA, read-out: MIC): 32 µg/mL (≈ 83.4 µM)
- MIC (Staphylococcus aureus; Staphylococcus aureus, MRSA, sa278, MRSA, read-out: MIC): 32 µg/mL (≈ 83.4 µM)
- MIC (Staphylococcus aureus; Staphylococcus aureus, MRSA, sa279, MRSA, read-out: MIC): 4 µg/mL (≈ 10.4 µM)
- MIC (Staphylococcus aureus; Staphylococcus aureus, MRSA, sa280, MRSA, read-out: MIC): 4 µg/mL (≈ 10.4 µM)
- MIC (Staphylococcus aureus; Staphylococcus aureus, MRSA, sa281, MRSA, read-out: MIC): 32 µg/mL (≈ 83.4 µM)
- MIC (Staphylococcus aureus; Staphylococcus aureus, MSSA): 0.125 µg/mL (≈ 0.326 µM)
- MIC (Staphylococcus aureus; Staphylococcus aureus, MSSA, sa007, MSSA, read-out: MIC): 0.25 µg/mL (≈ 0.652 µM)
- MIC (Staphylococcus aureus; Staphylococcus aureus, MSSA, sa015, MSSA, read-out: MIC): 0.25 µg/mL (≈ 0.652 µM)
- MIC (Staphylococcus aureus; sa002, MSSA): 0.125 µg/mL (≈ 0.326 µM)
- MIC (Staphylococcus aureus; sa003, MSSA): 0.125 µg/mL (≈ 0.326 µM)
- MIC (Staphylococcus aureus; sa004, MSSA): 0.125 µg/mL (≈ 0.326 µM)
- MIC (Staphylococcus aureus; sa005, MSSA): 0.125 µg/mL (≈ 0.326 µM)
- MIC (Staphylococcus aureus; sa006, MSSA): 0.125 µg/mL (≈ 0.326 µM)
- MIC (Staphylococcus aureus; sa008, MSSA): 0.125 µg/mL (≈ 0.326 µM)
- MIC (Staphylococcus aureus; sa009, MSSA): 0.125 µg/mL (≈ 0.326 µM)
- MIC (Staphylococcus aureus; sa012, MSSA): 0.125 µg/mL (≈ 0.326 µM)
- MIC (Acinetobacter baumannii; ATCC17978): 0.25 µg/mL and 0.66 µM
- MIC (Acinetobacter baumannii; strain ACM1013, ΔadeIJK): 0.125 µg/mL
- MIC (Acinetobacter baumannii; strain ACM1014, ΔadeABC): 0.125 µg/mL
- MIC (Acinetobacter baumannii; strain ACM1015, ΔadeIJK ΔadeABC): 0.06 µg/mL
- MIC (Acinetobacter baumannii; strain ACM1027, adeN (AdeIJK overexpression)): 1 µg/mL
- MIC (Acinetobacter baumannii; strain ACM1030, adeS (AdeABC overexpression)): 0.5 µg/mL
- MIC (Streptococcus pneumoniae; Streptococcus pneumoniae): 0.125 µg/mL (≈ 0.326 µM)
- MIC (Streptococcus pneumoniae; Streptococcus pneumoniae, sp001, read-out: MIC): ≤ 0.03 µg/mL
- MIC (Streptococcus pneumoniae; Streptococcus pneumoniae, sp002, read-out: MIC): ≤ 0.03 µg/mL
- MIC (Streptococcus pneumoniae; Streptococcus pneumoniae, sp003, read-out: MIC): ≤ 0.03 µg/mL
- MIC (Streptococcus pneumoniae; Streptococcus pneumoniae, sp004, read-out: MIC): 0.25 µg/mL (≈ 0.652 µM)
- MIC (Streptococcus pneumoniae; Streptococcus pneumoniae, sp005, read-out: MIC): 0.06 µg/mL (≈ 0.156 µM)
- MIC (Streptococcus pneumoniae; Streptococcus pneumoniae, sp006, read-out: MIC): 0.25 µg/mL (≈ 0.652 µM)
- MIC (Streptococcus pneumoniae; Streptococcus pneumoniae, sp009, read-out: MIC): 0.25 µg/mL (≈ 0.652 µM)
- MIC (Streptococcus pneumoniae; Streptococcus pneumoniae, sp117, read-out: MIC): 0.25 µg/mL (≈ 0.652 µM)
- MIC (Streptococcus pneumoniae; Streptococcus pneumoniae, sp118, read-out: MIC): 0.25 µg/mL (≈ 0.652 µM)
- MIC (Streptococcus pneumoniae; Streptococcus pneumoniae, sp119, read-out: MIC): 0.25 µg/mL (≈ 0.652 µM)
- MIC (Streptococcus pneumoniae; Streptococcus pneumoniae, sp120, read-out: MIC): 0.25 µg/mL (≈ 0.652 µM)
- MIC (Streptococcus pneumoniae; Streptococcus pneumoniae, sp122, read-out: MIC): 4 µg/mL (≈ 10.4 µM)
- MIC (Streptococcus pneumoniae; Streptococcus pneumoniae, sp123, read-out: MIC): 0.25 µg/mL (≈ 0.652 µM)
- MIC (Streptococcus pneumoniae; Streptococcus pneumoniae, sp125, read-out: MIC): 0.25 µg/mL (≈ 0.652 µM)
- MIC (Streptococcus pneumoniae; Streptococcus pneumoniae, sp126, read-out: MIC): 0.25 µg/mL (≈ 0.652 µM)
- MIC (Streptococcus pneumoniae; sp008): 0.125 µg/mL (≈ 0.326 µM)
- MIC (Streptococcus pneumoniae; sp121): 0.125 µg/mL (≈ 0.326 µM)
